Results published in paper PMC10746543, “Design principles for cyclin K molecular glue degraders” (Nature Chemical Biology, 2023).
Where “and” joins values, the source holds several entries; their conditions need not be identical. Identical values can stand only once. Like-named read-outs stand apart in the source and are kept apart here.

How the values were obtained:
CDK12–cyclin K and DDB1 = molecular target: T1, CDK12–cyclin K and DDB1 (Homo sapiens, UniProt Q16531+Q9NYV4, K965R); experiment: TR-FRET ternary complex formation assay (compound titration); format: binding; conditions: for TR-FRET signal at compound concentration 4.68 nM / TR-FRET signal at compound concentration 21.6 nM / TR-FRET signal at compound concentration 36 nM / TR-FRET signal at compound concentration 79.2001 nM / TR-FRET signal at compound concentration 158.4 nM / TR-FRET signal at compound concentration 309.6 nM / TR-FRET signal at compound concentration 626.401 nM / TR-FRET signal at compound concentration 1252.8 nM / TR-FRET signal at compound concentration 2448 nM / TR-FRET signal at compound concentration 9936.01 nM / TR-FRET signal at compound concentration 20016 nM: raw replicate titration data; for TR-FRET signal at compound concentration: replicate titrations
T1 construct: His6–CDK12 (a.a. 713–1,052); full-length or beta-propeller B domain deletion (ΔBPB: a.a. 396–705 deleted) constructs of His6–DDB1ΔBPB, StrepII–Avi–DDB1, or His6–Spy–DDB1; made in house; host or cells: Trichoplusia ni High Five insect cells (baculovirus)
Method in brief: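 Delayed (70 μs) time-resolved read; FRET computed as 520 nm over 490 nm emission.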

[1] = tested on: cyclin K–eGFP degradation reporter; experiment: Cyclin K reporter stability analysis (dual-color cyclin K–eGFP reporter); format: cell-based, human
Method in brief: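 Values reflect cyclin K–eGFP levels after a 5 h exposure, expressed as the green-to-red fluorescence ratio and scaled to three vehicle-treated controls. Measurements came from HEK293T–Cas9 reporter cells by flow cytometry.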

HEK293T cells = experiment: Drug sensitivity assay (CellTiter-Glo viability) with or without MLN4924 pretreatment; format: cell-based, human; conditions: for EC50: Homo sapiens, HEK-293T, HEK293T viability, 72 h, compound alone, read-out: Cellular assays EC50; for EC50 / Toxicity rescue: Supplementary Table 2; for Toxicity rescue: MLN4924-mediated cytotoxicity rescue, 10 µM used where n.d.
Method in brief: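 Viability of HEK293T–Cas9 cells was compared after 3-day drug treatment with or without 100 nM MLN4924 pretreatment (2 h, versus DMSO). Values are CellTiter-Glo signals relative to DMSO controls.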

[2] = compound concentration 79.2001 nM
[3] = compound concentration 158.4 nM
[4] = compound concentration 309.6 nM
[5] = compound concentration 626.401 nM
[6] = compound concentration 1252.8 nM
[7] = compound concentration 9936.01 nM
[8] = compound concentration 20016 nM
[9] = Supplementary Table 2, HEK293T cycK-eGFP reporter, 5 h, read-out: Cellular assays DC50
[10] = in vitro complex formation, 50 nM CDK12–cyclin K, 100 nM DDB1, text and figures, read-out: TR-FRET EC50
[11] = sheet MOESM7, read-out: log TR-FRET EC50 (converted)
[12] = source data sheet correlations, read-out: TR-FRET EC50
[13] = source data sheet correlations, read-out: DC50

T1 sequence (Q9NYV4 713-1052 K965R): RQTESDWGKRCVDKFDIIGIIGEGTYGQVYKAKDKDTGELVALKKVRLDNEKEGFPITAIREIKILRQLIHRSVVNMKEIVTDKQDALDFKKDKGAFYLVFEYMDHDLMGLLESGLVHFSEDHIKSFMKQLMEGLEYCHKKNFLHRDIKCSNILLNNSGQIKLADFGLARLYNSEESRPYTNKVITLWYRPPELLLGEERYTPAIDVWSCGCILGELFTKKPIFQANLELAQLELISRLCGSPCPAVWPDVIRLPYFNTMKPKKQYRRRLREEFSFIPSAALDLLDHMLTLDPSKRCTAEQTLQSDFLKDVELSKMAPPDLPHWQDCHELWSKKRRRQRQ
T1 sequence (O75909 1-267 partner): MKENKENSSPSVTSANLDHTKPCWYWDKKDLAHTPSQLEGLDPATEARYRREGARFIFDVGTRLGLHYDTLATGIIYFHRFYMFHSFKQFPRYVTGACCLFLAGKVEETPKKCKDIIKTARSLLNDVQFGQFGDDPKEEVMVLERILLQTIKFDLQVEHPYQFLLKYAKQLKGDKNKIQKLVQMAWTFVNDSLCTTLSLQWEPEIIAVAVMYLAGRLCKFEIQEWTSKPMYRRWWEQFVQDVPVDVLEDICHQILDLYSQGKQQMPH
T1 sequence (Q16531 whole entry): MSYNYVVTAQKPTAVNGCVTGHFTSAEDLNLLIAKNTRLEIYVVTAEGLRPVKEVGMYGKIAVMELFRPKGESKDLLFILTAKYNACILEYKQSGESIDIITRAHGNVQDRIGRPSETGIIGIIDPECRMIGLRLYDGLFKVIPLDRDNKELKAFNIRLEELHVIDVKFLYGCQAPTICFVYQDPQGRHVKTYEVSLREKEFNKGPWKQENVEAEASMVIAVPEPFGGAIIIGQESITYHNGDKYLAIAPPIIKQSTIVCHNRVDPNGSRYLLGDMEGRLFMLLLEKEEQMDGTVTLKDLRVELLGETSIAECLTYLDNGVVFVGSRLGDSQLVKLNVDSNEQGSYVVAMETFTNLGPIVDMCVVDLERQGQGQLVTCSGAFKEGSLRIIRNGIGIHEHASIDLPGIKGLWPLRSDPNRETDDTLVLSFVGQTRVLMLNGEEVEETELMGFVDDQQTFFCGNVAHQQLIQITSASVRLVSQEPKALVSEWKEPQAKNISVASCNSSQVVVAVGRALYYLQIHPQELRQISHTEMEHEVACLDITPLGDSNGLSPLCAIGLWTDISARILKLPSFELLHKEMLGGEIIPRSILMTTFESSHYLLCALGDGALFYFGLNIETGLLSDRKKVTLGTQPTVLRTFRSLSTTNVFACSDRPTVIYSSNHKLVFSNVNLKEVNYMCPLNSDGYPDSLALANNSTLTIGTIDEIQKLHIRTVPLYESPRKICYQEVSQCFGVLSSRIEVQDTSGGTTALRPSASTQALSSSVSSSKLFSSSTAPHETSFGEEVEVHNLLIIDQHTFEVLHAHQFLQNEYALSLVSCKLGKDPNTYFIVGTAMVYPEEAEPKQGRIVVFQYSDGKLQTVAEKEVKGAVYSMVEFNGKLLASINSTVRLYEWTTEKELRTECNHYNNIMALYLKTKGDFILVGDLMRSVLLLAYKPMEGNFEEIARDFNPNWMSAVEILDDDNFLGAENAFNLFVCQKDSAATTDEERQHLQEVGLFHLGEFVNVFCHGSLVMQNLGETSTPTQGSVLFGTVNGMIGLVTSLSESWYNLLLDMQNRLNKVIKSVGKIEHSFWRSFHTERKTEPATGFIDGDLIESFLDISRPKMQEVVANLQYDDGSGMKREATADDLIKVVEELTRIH

TR-FRET signal at compound concentration 4.68 nM (CDK12–cyclin K and DDB1; compound concentration 4.68 nM)	TR-FRET signal at compound concentration 21.6 nM (CDK12–cyclin K and DDB1; compound concentration 21.6 nM)	TR-FRET signal at compound concentration 36 nM (CDK12–cyclin K and DDB1; compound concentration 36 nM)	TR-FRET signal at compound concentration 79.2001 nM (CDK12–cyclin K and DDB1; [2])	TR-FRET signal at compound concentration 158.4 nM (CDK12–cyclin K and DDB1; [3])	TR-FRET signal at compound concentration 309.6 nM (CDK12–cyclin K and DDB1; [4])	TR-FRET signal at compound concentration 626.401 nM (CDK12–cyclin K and DDB1; [5])	TR-FRET signal at compound concentration 1252.8 nM (CDK12–cyclin K and DDB1; [6])	TR-FRET signal at compound concentration 2448 nM (CDK12–cyclin K and DDB1; compound concentration 2448 nM)	TR-FRET signal at compound concentration 9936.01 nM (CDK12–cyclin K and DDB1; [7])	TR-FRET signal at compound concentration 20016 nM (CDK12–cyclin K and DDB1; [8])	DC50 [1, 9] [nM]	EC50 (CDK12–cyclin K and DDB1; [10]) [nM]	EC50 (CDK12–cyclin K and DDB1; [11]) [nM]	EC50 (CDK12–cyclin K and DDB1; [12]) [nM]	DC50 [1, 13] [nM]	SMILES	EC50 (HEK293T cells) [nM]	Toxicity rescue (HEK293T cells) [%]	also measured
0.2594 and 0.2805 and 0.1719 and 0.175	0.4135 and 0.429 and 0.2939 and 0.3262	0.6079 and 0.623 and 0.4905 and 0.5031	0.8256 and 0.8685 and 0.6858 and 0.596	0.9273 and 1.013 and 0.793 and 0.779	0.9662 and 1.065 and 0.8707 and 0.8846	1.035 and 1.155 and 0.9082 and 0.902	1.099 and 1.27 and 0.978 and 0.9866	1.138 and 1.2612 and 0.9975 and 0.9532	1.131 and 1.306 and 0.9937 and 0.9375	1.0554 and 1.222 and 0.9378 and 0.9067	> 10000	–	–	–	–	CN1CC[C@H](c2c(O)cc(O)c3c(=O)cc(-c4ccccc4Cl)oc23)[C@H](O)C1 [Flavopiridol, reference compound]	395	1	–
0.1362 and 0.1646	0.1797 and 0.2051	0.2299 and 0.264	0.275 and 0.3223	0.3283 and 0.3614	0.3492 and 0.3941	0.3927 and 0.4325	0.4009 and 0.4489	0.4033 and 0.4482	0.3857 and 0.4199	0.3623 and 0.3979	> 10000	62 ± 13	–	–	–	COC[C@@H](C)N[C@H]1CC[C@H](Nc2cc(-c3cccc(NCC4(C#N)CCOCC4)n3)c(Cl)cn2)CC1 [NVP-2, reference compound]	23	-22	–
0.1294 and 0.1297	0.1203 and 0.1454	0.1008 and 0.09563	0.09205 and 0.08033	0.08734 and 0.07305	0.08584 and 0.06932	0.07997 and 0.06847	0.0797 and 0.06911	0.07318 and 0.06928	0.07478 and 0.06588	0.07606 and 0.06434	> 10000	–	–	–	–	CN(C)C/C=C/C(=O)Nc1ccc(C(=O)N2CCC[C@@H](Nc3ncc(Cl)c(-c4c[nH]c5ccccc45)n3)C2)cc1 [THZ531, reference compound]	271	-22	–
–	–	–	–	–	–	–	–	–	–	–	–	21 ± 1	21.4	21.4	23	CC[C@H](CO)Nc1nc(NCc2ccc(-c3ccccn3)c(=O)[nH]2)c2ncn(C(C)C)c2n1 [WX3]	179	954	TR-FRET signal at compound concentration (CDK12–cyclin K and DDB1; compound concentration 0.468 nM): 0.2972 and 0.3391; TR-FRET signal at compound concentration (CDK12–cyclin K and DDB1; compound concentration 2.16 nM): 0.4654 and 0.4243; TR-FRET signal at compound concentration (CDK12–cyclin K and DDB1; compound concentration 3.6 nM): 0.6432 and 0.6311; TR-FRET signal at compound concentration (CDK12–cyclin K and DDB1; compound concentration 7.92001 nM): 1.023 and 1.017; TR-FRET signal at compound concentration (CDK12–cyclin K and DDB1; compound concentration 15.84 nM): 1.68 and 1.67; TR-FRET signal at compound concentration (CDK12–cyclin K and DDB1; compound concentration 30.96 nM): 2.537 and 2.526; TR-FRET signal at compound concentration (CDK12–cyclin K and DDB1; compound concentration 62.6401 nM): 3.223 and 3.119; TR-FRET signal at compound concentration (CDK12–cyclin K and DDB1; compound concentration 125.28 nM): 3.664 and 3.458; TR-FRET signal at compound concentration (CDK12–cyclin K and DDB1; compound concentration 244.8 nM): 3.773 and 3.684; TR-FRET signal at compound concentration (CDK12–cyclin K and DDB1; compound concentration 993.601 nM): 3.764 and 3.722; TR-FRET signal at compound concentration (CDK12–cyclin K and DDB1; compound concentration 2001.6 nM): 3.801 and 3.784
–	–	–	–	–	–	–	–	–	–	–	–	79 ± 6	78.5	78.5	365	CC[C@H](CO)Nc1nc(NCc2cnc(-c3ccccn3)cc2C2OCCO2)c2ncn(C(C)C)c2n1 [WX4]	1180	432	TR-FRET signal at compound concentration (CDK12–cyclin K and DDB1; compound concentration 4.68 nM): 0.2788 and 0.2836; TR-FRET signal at compound concentration (CDK12–cyclin K and DDB1; compound concentration 21.6 nM): 0.5021 and 0.5027; TR-FRET signal at compound concentration (CDK12–cyclin K and DDB1; compound concentration 36 nM): 0.8511 and 0.8473; TR-FRET signal at compound concentration (CDK12–cyclin K and DDB1; [2]): 1.261 and 1.263; TR-FRET signal at compound concentration (CDK12–cyclin K and DDB1; [3]): 1.515 and 1.577; TR-FRET signal at compound concentration (CDK12–cyclin K and DDB1; [4]): 1.862 and 1.944; TR-FRET signal at compound concentration (CDK12–cyclin K and DDB1; [5]): 2.0566 and 2.128; TR-FRET signal at compound concentration (CDK12–cyclin K and DDB1; [6]): 2.108 and 2.242; TR-FRET signal at compound concentration (CDK12–cyclin K and DDB1; compound concentration 2448 nM): 2.161 and 2.2916; TR-FRET signal at compound concentration (CDK12–cyclin K and DDB1; [7]): 2.174 and 2.318; TR-FRET signal at compound concentration (CDK12–cyclin K and DDB1; [8]): 2.132 and 2.191

SMILES	TR-FRET signal at compound concentration 4.68 nM (CDK12–cyclin K and DDB1; compound concentration 4.68 nM)	TR-FRET signal at compound concentration 21.6 nM (CDK12–cyclin K and DDB1; compound concentration 21.6 nM)	TR-FRET signal at compound concentration 36 nM (CDK12–cyclin K and DDB1; compound concentration 36 nM)	TR-FRET signal at compound concentration 79.2001 nM (CDK12–cyclin K and DDB1; [2])	TR-FRET signal at compound concentration 158.4 nM (CDK12–cyclin K and DDB1; [3])	TR-FRET signal at compound concentration 309.6 nM (CDK12–cyclin K and DDB1; [4])	TR-FRET signal at compound concentration 626.401 nM (CDK12–cyclin K and DDB1; [5])	TR-FRET signal at compound concentration 1252.8 nM (CDK12–cyclin K and DDB1; [6])	TR-FRET signal at compound concentration 2448 nM (CDK12–cyclin K and DDB1; compound concentration 2448 nM)	TR-FRET signal at compound concentration 9936.01 nM (CDK12–cyclin K and DDB1; [7])	TR-FRET signal at compound concentration 20016 nM (CDK12–cyclin K and DDB1; [8])	DC50 [1, 9] [nM]	EC50 (CDK12–cyclin K and DDB1; [10]) [nM]	EC50 (CDK12–cyclin K and DDB1; [11]) [nM]	EC50 (CDK12–cyclin K and DDB1; [12]) [nM]	DC50 [1, 13] [nM]	EC50 (HEK293T cells) [nM]	Toxicity rescue (HEK293T cells) [%]	also measured
CC(C)(C)c1cnc(CSc2cnc(NC(=O)C3CCNCC3)s2)o1 [SNS032, reference compound]	–	–	–	–	–	–	–	–	–	–	–	> 10000	–	–	–	–	265	-22	TR-FRET signal (CDK12–cyclin K and DDB1; compound concentration 4.68 nM): 0.1508 and 0.1736; TR-FRET signal (CDK12–cyclin K and DDB1; compound concentration 21.6 nM): 0.2014 and 0.2318; TR-FRET signal (CDK12–cyclin K and DDB1; compound concentration 36 nM): 0.2617 and 0.2904; TR-FRET signal (CDK12–cyclin K and DDB1; [2]): 0.3013 and 0.3457; TR-FRET signal (CDK12–cyclin K and DDB1; [3]): 0.3207 and 0.3602; TR-FRET signal (CDK12–cyclin K and DDB1; [4]): 0.329 and 0.3662; TR-FRET signal (CDK12–cyclin K and DDB1; [5]): 0.3309 and 0.3799; TR-FRET signal (CDK12–cyclin K and DDB1; [6]): 0.346 and 0.4035; TR-FRET signal (CDK12–cyclin K and DDB1; compound concentration 2448 nM): 0.3618 and 0.4046; TR-FRET signal (CDK12–cyclin K and DDB1; [7]): 0.3822 and 0.42; TR-FRET signal (CDK12–cyclin K and DDB1; [8]): 0.3638 and 0.4143; DDB1–CDK12 complex formation, result in words (CDK12–cyclin K and DDB1; in vitro TR-FRET): no gain-of-function activity; % MLN4924 rescue (HEK293T cells; PCA input): 0%
